Experimental data published in publication PMC10524218 (Clinical cancer research : an official journal of the …, 2023).

Experiments:
[1] = Pharmacokinetics in patient blood samples, noncompartmental analysis; conditions: versus patients without; P=0.016; Fig. S3
[2] = test system: SCLC; conditions: monotherapy, SCLC ref 45; cited from earlier work
[3] = single-agent sacituzumab govitecan ref 35; cited from earlier work
[4] = test system: γH2AX foci in hair follicles; experiment: γH2AX foci formation in hair follicles as marker of DNA double-strand breaks; assay type: in vivo, human; conditions: hair follicles from eight patients
[5] = human, in vivo

CCc1c2c(nc3ccc(O)cc13)-c1cc3c(c(=O)n1C2)COC(=O)[C@]3(O)CC [SN-38]
SN-38 AUC in patients experiencing lymphopenia [1]: higher

sacituzumab govitecan
Tumor responses [2]: led to tumor responses in SCLC
Grade ≥ 3 neutropenia, fraction of patients [3]: about one-third
γH2AX foci in hair follicles following sacituzumab govitecan [4]: substantial increase in the number and intensity of γH2AX foci

CCc1c2c(nc3ccc(O[C@@H]4O[C@H](C(=O)O)[C@@H](O)[C@H](O)[C@H]4O)cc13)-c1cc3c(c(=O)n1C2)COC(=O)[C@]3(O)CC [SN-38G]
SN-38G Cmax in patients experiencing fatigue [5]: higher
